Measured values as given in patent US5804603A, “Synthesized β-adrenergic blockers derivatives of guaiacol” (National Science Council, priority 1995, dated 1998).
Where two headings read alike, the source gives them in different places.

Tests used:
[1] = system: heart rate and blood pressure; test: Heart rate and blood pressure changes of rats induced by guaiacoxypropanolamines; assay type: in vivo; details: 1.0 mg/kg iv, means ± SE (n = 8)
[2] = target: T1, Isolated Guinea Pig Atria (Cavia porcellus, UniProt H0W3H1); test: pA2 on isolated guinea pig atria; assay type: cell-based; details: for Kb / pA2, positive chronotropic / pA2, positive inotropic: isolated guinea pig atria; for Potency ratio (PR), positive chronotropic / Potency ratio (PR), positive inotropic: with respect to propranolol
T1 construct: Isolated Guinea Pig Atria; from tissue; host or cells: guinea pig atria (isolated organ)
Excerpt: The determination of the pA2 is made from experiments in which a fixed concentration of the antagonist is used along with graded concentrations of an agonist acting on the same receptor. The presence of the antagonist shifts the agonist dose-response curve to the right.

[3] = read-out: pA2, positive chronotropic (converted)
[4] = read-out: pA2, positive inotropic (converted)

T1 sequence (H0W3H1 1-470): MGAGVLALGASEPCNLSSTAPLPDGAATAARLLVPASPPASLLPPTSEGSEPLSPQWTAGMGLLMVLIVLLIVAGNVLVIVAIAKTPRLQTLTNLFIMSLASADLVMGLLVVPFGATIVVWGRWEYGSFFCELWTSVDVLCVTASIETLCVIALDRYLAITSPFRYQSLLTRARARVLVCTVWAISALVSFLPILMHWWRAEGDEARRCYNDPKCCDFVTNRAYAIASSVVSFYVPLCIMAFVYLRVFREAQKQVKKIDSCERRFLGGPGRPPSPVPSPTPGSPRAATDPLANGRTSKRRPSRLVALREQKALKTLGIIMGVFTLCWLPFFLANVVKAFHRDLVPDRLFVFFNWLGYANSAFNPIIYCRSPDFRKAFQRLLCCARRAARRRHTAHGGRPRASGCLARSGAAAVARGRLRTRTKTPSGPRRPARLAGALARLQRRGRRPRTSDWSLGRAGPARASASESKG

Molecule	change in BP ([1]; 5 min after dosing) [mmHg]	change in HR ([1]; 5 min after dosing) [beats/min]	change in BP ([1]; 10 min after dosing) [mmHg]	change in HR ([1]; 10 min after dosing) [beats/min]	change in BP ([1]; 15 min after dosing) [mmHg]	change in HR ([1]; 15 min after dosing) [beats/min]	change in BP ([1]; 30 min after dosing) [mmHg]	change in HR ([1]; 30 min after dosing) [beats/min]	change in BP ([1]; 60 min after dosing) [mmHg]	change in HR ([1]; 60 min after dosing) [beats/min]	Kb [2, 3] [nM]	Kb [2, 4] [nM]	Potency ratio (PR), positive chronotropic [2]	Potency ratio (PR), positive inotropic [2]	pA2, positive chronotropic [2]	pA2, positive inotropic [2]
CCCCCCCCC(=O)NCc1ccc(OCC(O)CNC(C)C)c(OC)c1 (stereo not drawn) [NH-i-C3 H7, N-[4-o-(2-hydroxy-3-(isopropylamino)propoxy)-3-methoxybenzyl]-nonamide]	-0.44 ± 2.05	-50.22 ± 7.29	-1.22 ± 2.29	-40.78 ± 7.64	-2.89 ± 2.03	-35.44 ± 7.32	-6.67 ± 2.51	-32.67 ± 9.24	-1.33 ± 0.98	-20.00 ± 6.15	17	8.51	0.45	0.45		
C=CCNCC(O)COc1ccc(CNC(=O)CCCCCCCC)cc1OC (stereo not drawn) [NHC3 H5, N-[4-0-(2-hydroxy-3-(allylamino)propoxy)-3-methoxybenzyl]-nonamide]	-1.56 ± 2.03	-36.78 ± 11.25	-2.67 ± 1.96	-28.22 ± 9.00	-1.89 ± 2.04	-19.89 ± 9.26	-1.11 ± 2.62	-5.00 ± 8.72	4.78 ± 4.96	-7.56 ± 4.14	93.3	25.1	0.08	0.15		
CCCCCCCCC(=O)NCc1ccc(OCC(O)CNC2CCCCC2)c(OC)c1 (stereo not drawn) [NH-c-C6 H11, N-[4-o-(2-hydroxy-3-(cyclohexylamino)propoxy)-3-methoxybenzyl]-nonamide]	-4.11 ± 2.89	-32.33 ± 15.44	-4.22 ± 2.29	-28.44 ± 16.54	-3.67 ± 2.39	-11.67 ± 9.26	1.33 ± 2.69	-1.78 ± 8.96	0.67 ± 2.45	2.78 ± 9.64						
CCCCCCCCC(=O)NCc1ccc(OCC(O)CNC2CC2)c(OC)c1 (stereo not drawn) [NH-c-C3 H5, N-[4-o-(2-hydroxy-3-(cyclopropylamino)propoxy)-3-methoxybenzyl]-nonamide]	-0.11 ± 1.09	-47.67 ± 8.88	3.11 ± 2.78	-38.89 ± 9.47	3.89 ± 2.92	-23.67 ± 10.01	3.67 ± 4.10	-11.89 ± 8.73	2.22 ± 2.32	-2.67 ± 4.14						
CCCCCCCCC(=O)NCc1ccc(OCC(O)CNCCC)c(OC)c1 (stereo not drawn) [NH-n-C3 H7, N-[4-o-(2-hydroxy-3-(n-propylamino)propoxy)-3-methoxybenzyl]-nonamide]	-1.78 ± 1.71	-42.56 ± 7.65	-2.56 ± 1.47	-35.33 ± 6.05	-3.11 ± 1.81	-32.00 ± 5.25	-2.44 ± 1.66	-14.11 ± 5.16	-0.56 ± 0.50	-6.89 ± 4.32			0.05	0.21	6.79 ± 0.01	7.75 ± 0.07
N-[4-0-(2-hydroxy-3-(3-aminopentylamino)propoxy)-3-methoxybenzyl-]-nonamide [NHC5 H11]	-2.78 ± 2.33	-28.11 ± 9.34	-2.56 ± 1.42	-28.89 ± 6.30	-3.22 ± 1.78	-22.78 ± 5.04	-1.33 ± 1.38	-2.22 ± 7.28	0.67 ± 0.47	-3.33 ± 5.69			0.14	0.07	7.25 ± 0.10	7.26 ± 0.08
CCCCCCCCC(=O)NCc1ccc(OCC(O)CNC(C)CC)c(OC)c1 (stereo not drawn) [NH-s-C4 H9, N-[4-o-(2-hydroxy-3-(sec-butylamino)propoxy)-3-methoxybenzyl]-nonamide]	4.11 ± 2.76	-38.56 ± 11.30	4.89 ± 3.37	-35.44 ± 12.46	3.33 ± 3.74	-32.33 ± 11.96	-0.88 ± 3.11	-25.11 ± 9.49	1.22 ± 1.47	-9.56 ± 7.03	120	22.4	0.07	0.17		
CCCCCCCCC(=O)NCc1ccc(OCC(O)CNC(C)(C)C)c(OC)c1 (stereo not drawn) [NH-t-C4 H9, N-[4-o-(2-hydroxy-3-(tert-butylamino)propoxy)-3-methoxybenzyl]-nonamide]	3.13 ± 5.66	-45.00 ± 4.20	3.38 ± 5.08	-37.75 ± 4.44	2.38 ± 5.41	-29.50 ± 5.31	1.25 ± 5.45	-24.88 ± 8.47	4.63 ± 3.51	-18.50 ± 5.13	39.8	15.8	0.19	0.24		
CCCCCCCCC(=O)NCc1ccc(OCC(O)CNC)c(OC)c1 (stereo not drawn) [NHCH3, N-[4-o-(2-hydroxy-3-(methylamino)propoxy)-3-methoxybenzyl]-nonamide]	-1.11 ± 2.31	-34.56 ± 6.79	-0.22 ± 2.10	-17.33 ± 5.31	-0.56 ± 1.65	-12.22 ± 4.33	1.89 ± 2.14	14.56 ± 7.73	0.78 ± 1.37	4.78 ± 4.37	295	74.1	0.03	0.05		
CCCCCCCCC(=O)NCc1ccc(OCC(O)CNCC)c(OC)c1 (stereo not drawn) [NHC2 H5, N-[4-o-(2-hydroxy-3-(ethylamino)propoxy)-3-methoxybenzyl]-nonamide]	7.44 ± 3.16	-38.33 ± 5.94	2.56 ± 2.56	-32.22 ± 5.36	1.11 ± 1.78	-28.00 ± 7.02	-2.44 ± 3.05	-21.11 ± 8.75	1.88 ± 1.62	2.56 ± 11.66			0.07	0.07	6.93 ± 0.09	7.27 ± 0.09
CCCCCCCCC(=O)NCc1ccc(OCC(O)CNCC(C)C)c(OC)c1 (stereo not drawn) [NH-i-C4 H9, N-[4-o-(2-hydroxy-3-(iso-butylamino)propoxy)-3-methoxybenzyl]-nonamide]	-2.75 ± 2.29	-39.88 ± 8.60	1.63 ± 2.07	-35.25 ± 7.98	1.63 ± 1.71	-27.13 ± 7.76	2.00 ± 1.86	4.13 ± 8.20	0.25 ± 1.91	3.13 ± 7.90	117	26.9	0.06	0.14		
CCCCCCCCC(=O)NCc1ccc(OCC(O)CNCCCCCC)c(OC)c1 (stereo not drawn) [NH-n-C6 H13, N-[4-o-(2-hydroxy-3-(n-hexylamino)propoxy)-3-methoxybenzyl]-nonamide]	-2.22 ± 1.42	-35.56 ± 8.71	-2.89 ± 1.61	-24.11 ± 3.31	-4.44 ± 2.93	-14.89 ± 7.10	-2.11 ± 2.77	-12.67 ± 6.59	1.89 ± 1.13	-8.00 ± 5.64	933	66.1	0.01	0.06		
CCCCCCCCC(=O)NCc1ccc(OCC(O)CNCCCC)c(OC)c1 (stereo not drawn) [NH-n-C4 H9, N-[4-o-(2-hydroxy-3-(n-butylamino)propoxy)-3-methoxybenzyl]-nonamide]	-0.22 ± 1.74	-40.00 ± 3.74	-1.22 ± 1.59	-33.78 ± 5.08	-1.22 ± 1.77	-26.22 ± 6.56	0.11 ± 1.54	-15.33 ± 5.24	3.33 ± 2.82	-3.67 ± 2.55	58.9	53.7	0.13	0.07		
